Reference: the supplement of paper PMC10949913

Assays:
Assay in all cases: area under concentration-response curve (viability) (AUC (a.u.)); higher = less active
Conditions in all cases: 48 h
NCI-H295R = test system: NCI-H295R
Procedure, shortened: (§1)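 Three adrenocortical carcinoma cell lines in 1,536-well plates received 23 nL of each library compound at 11 concentrations and were read with CellTiter-Glo after 48 h, with 15 minutes at room temperature before measuring luminescence. Vehicle and empty-well controls served for per-plate normalisation. AC50 and area under the curve were extracted from fitted concentration-response curves, discarding all curve classes other than inhibitory or non-responding.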

CU-ACC1 = test system: CU-ACC1
Procedure, shortened: as §1

CU-ACC2 = test system: CU-ACC2
Procedure, shortened: as §1

Compound | area under concentration-response curve (NCI-H295R) | area under concentration-response curve (CU-ACC1) | area under concentration-response curve (CU-ACC2)
O=C(O)C(=O)Nc1cccc(-c2nnn[nH]2)c1 | 553 | 547 | 645
C[C@]\12CC[C@H](O)CC1=C/C[C@@H]3[C@@H]2CC[C@@]\4(C)[C@H]3C\C=C4C5=CN=CC=C5 | 509 | 522 | 588
COc1cc[nH]c2ncc(C(=O)C(=O)N3CCN(C(=O)c4ccccc4)C[C@H]3C)c1-2 | 560 | 545 | 632
O=C1CCC[C@@H]2[C@H]3CCC[N+]4([O-])CCC[C@@H](CN12)[C@@H]34 (stereo partly specified) | 552 | 536 | 610
Cc1c(Cl)cccc1[S+](=O)([O-])Nc1nc(CCN2CCOCC2=O)cs1 | 520 | 483 | 583
CN(C(=O)c1ccc(F)cc1C(F)(F)F)C1CCN(c2nnc(-c3ccnn3C)c3ccccc23)CC1 | 566 | 495 | 601
CCCC(CCC)C(=O)[O-] | 442 | 445 | 482
CC[N+](CC)(CC)CCOc1cccc(OCC[N+](CC)(CC)CC)c1OCC[N+](CC)(CC)CC | 474 | 412 | 472
COc1cc([C@H]2Oc3cc([C@H]4Oc5cc(O)cc(O)c5C(=O)[C@@H]4O)ccc3O[C@@H]2CO)ccc1O | 587 | 585 | 632
COc1ccc([S+](=O)([O-])NCc2ccc(C(=O)NCCc3ccc(Cl)cn3)cc2)cc1 | 614 | 565 | 654
C[N]1C=C(C2=CC=CC=C12)/C3=C(/C(=O)NC3=O)C4=C[N](C)C5=CC(=CC=C45)[N+]([O-])=O | 454 | 611 | 608
C[C@@H](C1CC[C@@]2(O)C3=CC(=O)[C@@H]4C[C@@H](O)[C@@H](O)C[C@]4(C)[C@H]3CC[C@]12C)[C@H](O)CCC(C)(C)O (stereo partly specified) | 424 | 411 | 488
COc1cc2c(cc1OC)CN(CCc1ccc(NC(=O)c3cccc4c(=O)c5cccc(OC)c5[nH]c34)cc1)CC2 | 567 | 575 | 621
C=CC(=O)N[C@H]1CCOC[C@H]1Nc1ncc2cc(-c3c(Cl)c(OC)cc(OC)c3Cl)ccc2n1 | 453 | 458 | 554
C[C@@H]1COCCN1C\2=C\C(=O)N\3CC[C@H](N(CC4=CN=CC(=C4)Cl)C3=N2)C(F)(F)F | 590 | 550 | 661
C#C[C@]1(O)CC[C@H]2[C@@H]3CCc4cc(OC)ccc4[C@H]3CC[C@@]21C | 457 | 414 | 475
C[C@H]1COC/2=C1/C(=O)C(=O)C3=C4CCCC(C)(C)C4=CC=C23 | 540 | 525 | 601
CC(=O)N1CCC(Nc2cc(C(=O)NC[C@H](O)CN3CCc4ccccc4C3)ncn2)CC1 | 473 | 450 | 558
C[C@@H]\1/N=C(/N)NC(=N1)\N(C)C | 549 | 407 | 596
OC[C@H]1O[C@H](C[C@@H]1O)N2\C=C(\I)C(=O)NC2=O | 501 | 496 | 543
Cc1ccc(O)c(C(CCN(C(C)C)C(C)C)c2ccccc2)c1.Cl (stereo unspecified) | 558 | 491 | 625
CCN1/C(=C/C(C)=O)Sc2ccc(OC)cc21 | 515 | 467 | 569
O=C(NCC1CCCCN1)c1cc(OCC(F)(F)F)ccc1OCC(F)(F)F (stereo unspecified) | 525 | 431 | 527
CC(C)C(=O)OCC(=O)[C@@]12O[C@@H](O[C@@H]1C[C@H]3[C@@H]4CC\C5=C\C(=O)\C=C/[C@]5(C)[C@H]4[C@@H](O)C[C@]23C)C6CCCCC6 | 531 | 523 | 606

Compound | area under concentration-response curve (NCI-H295R) | area under concentration-response curve (CU-ACC1) | area under concentration-response curve (CU-ACC2)
CNC[C@H](O)[C@@H](O)[C@H](O)[C@H](O)CO | 547 | 421 | 542
CNCCN(C)Cc1c[nH]nc1-c1ccc(O[C@H]2C[C@H](OCCC3CCOCC3)C2)cc1 | 546 | 520 | 512
COc1cc(N2CCC(O)CC2)ccc1Nc1cc(Nc2ccccc2[S+](=O)([O-])C(C)C)c2cc[nH]c2n1 | 588 | 585 | 654
Cc1ccc(NC(=O)c2cccc(N(C)C)c2)cc1NC(=O)c1ccc(O)cc1 | 511 | 496 | 556
CN(C)c1nc(N(C)C)nc(N(C)C)n1 | 476 | 509 | 577
Cc1ccc([S+](=O)([O-])NC(=O)NN2CC3CCCC3C2)cc1 (stereo unspecified) | 579 | 537 | 629
CN(C)C(=O)COC(=O)Cc1ccc(OC(=O)c2ccc(NC(=N)N)cc2)cc1 | 541 | 464 | 564
N[C@@H]1CN(CC12CC2)C3=C(F)C=C4C(=O)\C(=C/N([C@@H]5C[C@@H]5F)C4=C3Cl)C(O)=O | 381 | 390 | 426
CC(COc1ccccc1)N(CCCl)Cc1ccccc1 (stereo unspecified) | 584 | 549 | 653
O=C1CC[C@H](N2Cc3c(OCc4ccc(CN5CCOCC5)cc4)cccc3C2=O)C(=O)N1 | 552 | 517 | 606
COc1ccc(C(=O)N2CCCC2=O)cc1 | 573 | 533 | 655
C[N]1C2=C(SC(=C2)[S+](C)[O-])C\3=C1C(=O)N(CC4=CC(=CC=C4)N)\N=C3 (stereo unspecified) | 468 | 363 | 511
CC(C)(Sc1cc(C(C)(C)C)c(O)c(C(C)(C)C)c1)Sc1cc(C(C)(C)C)c(O)c(C(C)(C)C)c1 | 601 | 550 | 652
NC(=O)c1cccc(N)c1 | 595 | 582 | 656
OC[C@H]1O[C@@H](OC2=CC3=C(C=C2)C(=O)\C(=C/O3)C4=CC=C(O)C=C4)[C@H](O)[C@@H](O)[C@@H]1O | 576 | 551 | 591
O=C(NCc1ccccc1)[C@H](Cc1ccccc1)NC(=O)[C@H]1O[C@@H]1C(=O)NCCc1ccc(O)cc1 | 524 | 495 | 557
CCCn1c(=O)c2[nH]c(-c3cnn(Cc4cccc(C(F)(F)F)c4)c3)nc2n(CC)c1=O | 584 | 509 | 633
C\C1=C(/C)C(=O)\C(=C(\C)C1=O)C(CCCCCC(O)=O)C2=CC=CC=C2 (stereo unspecified) | 550 | 545 | 613
O=[N+]([O-])c1cnc(Sc2nnc(O)n2-c2ccc3c(c2)OCCO3)s1 | 517 | 529 | 611
C[C@@H](CN1CC(=O)NC(=O)C1)N1CC(=O)NC(=O)C1 | 478 | 516 | 588
C#Cc1cccc(Nc2ncnc3cc(OCCOC)c(OCCO)cc23)c1 | 541 | 528 | 615
Cc1onc(-c2ccc(F)cc2)c1COc1ccc(C(=O)N2CC[S+](=O)([O-])CC2)cn1 | 616 | 596 | 646
CCC(=O)NCC[C@@H]1CCc2ccc3c(c21)CCO3 | 531 | 490 | 564
